Like-named read-outs stand apart in the source and are kept apart here.
Key:
Tox21 assays [1] = assay: Re-evaluated Tox21 data (Adamovsky et al.), REPBPA and SRbaseline; details: for SRbaseline: Specificity Ratio;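 as to all read-outs here: published Tox21 results reanalysed with a revised model predicting baseline toxicity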
From the text: We also reanalyzed the Tox21 data of Adamovsky et al. with the updated baseline toxicity prediction model (Table S2).

ERα [2] = assay: Literature ERα reporter gene assays (comparison); assay type: cell-based; details: for EC10, approx.: in M (unit assumed)
Experimental: S5.4: Comparison with literature data for ERα reporter gene assays
To improve data comparability with our own results we converted reported EC₅₀ to EC₁₀ by dividing by 9, which is the ratio for log-logistic concentration-response curves with a hillslope of 1 (Figure S9a). Additionally, REPBPA values were calculated to enable a more consistent evaluation. Methodological differences between studies must be considered, as Reiniger et al.24 used the YES assay, while Goksøyr et al.25 applied ERα from fish (Figure S9b).
Cyan symbols highlight the ER-UAS-bla GripTite (this study and Tox21GenBLA).
(1 picture or pasted object on this page, not shown here)

neuronal stem cells = details: ref Liang et al.; cited from earlier work
ERα [3] = details: cited from earlier work
Tox21 assays [4] = details: cited from earlier work
[5] = experimental; ref Hansch, 1995; cited from earlier work
[6] = Tox21Luc, ref Adamovsky et al. 2024
[7] = Atlantic cod estrogen receptor, approximated from literature EC50, ref Goksøyr et al 2024
[8] = Atlantic cod estrogen receptor, ref Goksøyr et al 2024
[9] = approximated from literature EC50, ref Pelch et al 2019
[10] = approximated from literature EC50, ref Reiniger et Oehlmann 2024
[11] = approximated from literature values, ref Kojima et al 2019
[12] = relative estrogenic potency vs BPA, ref Kojima et al 2019
[13] = relative estrogenic potency vs BPA, ref Pelch et al 2019
[14] = relative estrogenic potency vs BPA, ref Reiniger et Oehlmann 2024
[15] = estrogen receptor from Atlantic cod (Gadus morhua), ref Goksøyr et al 2024

Row | Structure (SMILES) | SRbaseline (Tox21 assays [1]; ATG_PPARg_TRANS_up) | REPBPA (Tox21 assays [1]; [6]) | EC10, approx. (ERα [2]; [7]) | REPBPA (ERα [2]; [8]) | EC10, approx. (ERα [2]; [9]) | EC10, approx. (ERα [2]; [10]) | EC10, approx. (ERα [2]; [11]) | REPBPA (ERα [2]; [12]) | REPBPA (ERα [2]; [13]) | REPBPA (ERα [2]; [14]) | concentration with significant reduction in average neurite length (neuronal stem cells) | EC50 (ERα [3]; [15]) | EC50 (ERα [3]; ref Kojima et al 2019) | EC50 (ERα [3]; ref Pelch et al 2019) | Efficacy % (ERα [3]; ref Pelch et al 2019) | Efficacy % (ERα [3]; ref Reiniger et Oehlmann 2024) | also measured
1 | O=S(=O)(c1ccc(O)cc1)c1ccc(O)cc1 [BPS, 4,4'-Sulfonyldiphenol] | 2973 | 1.68E-02 | ~9.26E-06 | 2.28E-02 | ~1.44E-07 | ~7.13E-09 | ~8.50E-07 | 4.29E-02 | 9.23E-01 | 3.52E+01 | 1 nM | 83.3 µM | 5.4 µM | 1.3 µM | 61.60% | 7.90E+00% | REPBPA (Tox21 assays [1]; ATG_chAR_XSP2_up, Relative Effect Potency): 1.00; SRbaseline (Tox21 assays [1]; ATG_chAR_XSP2_up): 645.8; SRbaseline (Tox21 assays [1]; ATG_hPPARg_XSP2_up): 3669; REPBPA (Tox21 assays [1]; TOX21_AR_LUC_MDAKB2_Antagonist_0,5nM_R1881, Relative Effect Potency): 0.0653; SRbaseline (Tox21 assays [1]; TOX21_AR_LUC_MDAKB2_Antagonist_0,5nM_R1881): 127.8; REPBPA (Tox21 assays [1]; Tox21BLA, ref Adamovsky et al. 2024): 1.59E-01; REPBPA,ERα reported in the literature (ERα [3]; ref Text S5.4, Tables S2 and S7): 0.02–1
2 | Oc1ccc(Cc2ccc(O)cc2)cc1 [BPF, Bis(4-hydroxyphenyl)methane] | 41.61 | 4.84E-01 | ~4.22E-07 | 5.00E-01 | ~1.78E-07 | ~2.82E-07 | ~5.50E-08 | 6.64E-01 | 7.50E-01 | 8.90E-01 | 1 nM | 3.8 µM | 0.32 µM | 1.6 µM | 63.10% | 1.05E+02% | REPBPA (Tox21 assays [1]; ATG_PPARg_TRANS_up, Relative Effect Potency): 0.40; SRbaseline (Tox21 assays [1]; TOX21_PPARg_BLA_antagonist_ratio): 17.20; EC10 (Tox21 assays [4]; ATG_PPARg_TRANS_up, re-evaluated Tox21 data, ref Adamovsky et al 2024): 3.95e-06 M; EC10 (Tox21 assays [4]; TOX21_PPARg_BLA_antagonist_ratio, re-evaluated Tox21 data, ref Adamovsky et al 2024): 9.55e-06 M; EC10 (Tox21 assays [4]; [6]): 8.91E-08; predicted or literature experimental log Kow [5]: 2.91; EC50 (ERα [3]; ref Reiniger et Oehlmann 2024): 2.54 µM
